Where “and” joins values, the source holds several entries; their conditions need not be identical. Equal values may be shown once. Inconclusive results and toxic doses are left out. Cut-off read from the data, not from the text of the source: active = T/C of 150% or more; inactive = T/C below 125%.
System: L1210 leukemia ip in BDF1 mice, survival T/C
Experiment: NCI In Vivo Anticancer Drug Screen. Data for tumor model L1210 Leukemia (intraperitoneal) in B6D2F1 (BDF1) mice
Conditions: endpoint: mean survival time, higher = longer survival
Procedure, shortened: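 Survival endpoint. Drug-treated group vs vehicle group, expressed as T divided by C. Tumor passaged by transplantation.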

[1] = dose: 100.0 mg/kg/injection, schedule: Q01DX001 (ip), vehicle: saline
[2] = dose: 100.0 mg/kg/injection, schedule: Q01DX009 (ip), vehicle: Klucel (hydroxypropylcellulose) (HPC)
[3] = dose: 200.0 mg/kg/injection, schedule: Q01DX009 (ip), vehicle: Klucel (hydroxypropylcellulose) (HPC)
[4] = dose: 100.0 mg/kg/injection, schedule: Q01DX001 (ip), vehicle: Klucel (hydroxypropylcellulose) (HPC)
[5] = dose: 100.0 mg/kg/injection, schedule: Q04DX003 (ip), vehicle: Klucel (hydroxypropylcellulose) (HPC)
[6] = dose: 200.0 mg/kg/injection, schedule: Q01DX001 (ip), vehicle: Klucel (hydroxypropylcellulose) (HPC)
[7] = dose: 200.0 mg/kg/injection, schedule: Q04DX003 (ip), vehicle: Klucel (hydroxypropylcellulose) (HPC)
[8] = dose: 400.0 mg/kg/injection, schedule: Q01DX001 (ip), vehicle: Klucel (hydroxypropylcellulose) (HPC)
[9] = dose: 400.0 mg/kg/injection, schedule: Q04DX003 (ip), vehicle: Klucel (hydroxypropylcellulose) (HPC)
[10] = dose: 200.0 mg/kg/injection, schedule: Q01DX001 (ip), vehicle: saline
[11] = dose: 400.0 mg/kg/injection, schedule: Q01DX001 (ip), vehicle: saline
[12] = dose: 50.0 mg/kg/injection, schedule: Q04DX002 (ip), vehicle: Klucel (hydroxypropylcellulose) (HPC)
[13] = dose: 100.0 mg/kg/injection, schedule: Q04DX003 (ip), vehicle: saline with Tween-80
[14] = dose: 200.0 mg/kg/injection, schedule: Q04DX003 (ip), vehicle: saline with Tween-80
[15] = dose: 400.0 mg/kg/injection, schedule: Q04DX003 (ip), vehicle: saline with Tween-80
[16] = dose: 100.0 mg/kg/injection, schedule: Q04DX002 (ip), vehicle: saline
[17] = dose: 200.0 mg/kg/injection, schedule: Q04DX002 (ip), vehicle: saline
[18] = dose: 400.0 mg/kg/injection, schedule: Q04DX002 (ip), vehicle: saline
[19] = dose: 100.0 mg/kg/injection, schedule: Q01DX001 (ip), vehicle: carboxymethylcellulose (CMC)
[20] = dose: 200.0 mg/kg/injection, schedule: Q01DX001 (ip), vehicle: carboxymethylcellulose (CMC)
[21] = dose: 400.0 mg/kg/injection, schedule: Q01DX001 (ip), vehicle: carboxymethylcellulose (CMC)

Measured: T/C

Cc1cccc(NC(=O)NCC(=O)N/N=C/c2cccc([N+](=O)[O-])c2)n1
inactive: dose: 50.0 mg/kg/injection, schedule: Q01DX009 (ip), vehicle: saline with Tween-80 93 % of control | dose: 100.0 mg/kg/injection, schedule: Q01DX009 (ip), vehicle: saline with Tween-80 90 % of control | dose: 200.0 mg/kg/injection, schedule: Q01DX009 (ip), vehicle: saline with Tween-80 88 % of control

CC(=O)n1cc(CS)c(=O)[nH]c1=O
inactive: [1] 106 % of control

NS(=O)(=O)c1ccc(N=Cc2cc(Cl)cc(Cl)c2O)cc1
inactive: [2] 101 % of control | [3] 106 % of control | dose: 400.0 mg/kg/injection, schedule: Q01DX009 (ip), vehicle: Klucel (hydroxypropylcellulose) (HPC) 106 % of control

CCS(=O)(=O)CS(=O)(=O)Cc1ccccc1
inactive: dose: 75.0 mg/kg/injection, schedule: Q04DX003 (ip), vehicle: saline 94 % of control | dose: 150.0 mg/kg/injection, schedule: Q04DX003 (ip), vehicle: saline 95 % of control | dose: 300.0 mg/kg/injection, schedule: Q04DX003 (ip), vehicle: saline 95 % of control

C=CCNc1ccc(C)cc1
inactive: dose: 50.0 mg/kg/injection, schedule: Q01DX009 (ip), vehicle: other 92 % of control | dose: 100.0 mg/kg/injection, schedule: Q01DX009 (ip), vehicle: other 104 % of control | dose: 100.0 mg/kg/injection, schedule: Q04DX003 (ip), vehicle: other 100 % of control | dose: 200.0 mg/kg/injection, schedule: Q04DX003 (ip), vehicle: other 109 % of control

COc1ccc2c(c1)c(CC(=O)O)c(Br)n2Cc1ccccc1
inactive: [4] 112 % of control | [5] 98 % of control | [6] 112 % of control | [7] 100 % of control | [8] 101 % of control | [9] 102 % of control

CC(=O)OCC1OC(n2cnc3c(Cl)nc(Cl)nc32)CC1OC(C)=O (stereo not given)
inactive: [1] 101 % of control | [10] 101 % of control | [11] 101 % of control

CC1OC(C)C(Cl)C1Cl (stereo not given)
inactive: [12] 110 % of control | dose: 100.0 mg/kg/injection, schedule: Q04DX002 (ip), vehicle: Klucel (hydroxypropylcellulose) (HPC) 95 % of control | dose: 200.0 mg/kg/injection, schedule: Q04DX002 (ip), vehicle: Klucel (hydroxypropylcellulose) (HPC) 100 % of control

C[N+](C)(C)CCC[N+]1(C)Cc2ccccc2C1
inactive: dose: 55.0 mg/kg/injection, schedule: Q01DX Z (ip), vehicle: saline 91 % of control | dose: 83.0 mg/kg/injection, schedule: Q01DX Z (ip), vehicle: saline 97 % of control | dose: 125.0 mg/kg/injection, schedule: Q01DX Z (ip), vehicle: saline 96 % of control

Oc1ccc(Nc2ncnc3nc[nH]c23)cc1O
inactive: [13] 101 % of control | [14] 89 % of control | [15] 100 % of control

C[S+](C)(=O)CCCS(=O)(=O)[O-]
inactive: [16] 99 % of control | [17] 92 % of control | [18] 92 % of control

COC(=O)C(C)C(=O)O (stereo not given)
inactive: [16] 90 % of control | [17] 97 % of control | [18] 90 % of control

CS(=O)(=O)Oc1ccc(Cl)c2ccccc12
inactive: [19] 98 % of control | [20] 101 % of control | [21] 95 % of control

COc1ccc(NN=Nc2ccccc2C#N)cc1
inactive: [5] 106 % of control | [7] 100 % of control | [9] 108 % of control

Cc1ccc(S(=O)(=O)N=Nc2c(O)[nH]c3cc(O)c(C(=O)O)cc23)cc1
inactive: dose: 50.0 mg/kg/injection, schedule: Q04DX003 (ip), vehicle: Klucel (hydroxypropylcellulose) (HPC) 103 % of control | [5] 92 % of control | [13] 100 % of control | [7] 92 % of control and 98 % of control | [14] 110 % of control | [9] 95 % of control | [15] 110 % of control

O=[N+]([O-])c1ccc(C2N=NCCS2)cc1 (stereo not given)
inactive: [4] 98 % of control | [6] 104 % of control | [8] 95 % of control

CCOC(OCC)/C(C)=N\NC(N)=S
inactive: dose: 15.0 mg/kg/injection, schedule: Q01DX Z (ip), vehicle: carboxymethylcellulose (CMC) 98 % of control | dose: 30.0 mg/kg/injection, schedule: Q01DX Z (ip), vehicle: carboxymethylcellulose (CMC) 102 % of control | dose: 60.0 mg/kg/injection, schedule: Q01DX Z (ip), vehicle: carboxymethylcellulose (CMC) 96 % of control | dose: 120.0 mg/kg/injection, schedule: Q01DX Z (ip), vehicle: carboxymethylcellulose (CMC) 86 % of control | dose: 120.0 mg/kg/injection, schedule: Q01DX Z (oral), vehicle: carboxymethylcellulose (CMC) 95 % of control | dose: 240.0 mg/kg/injection, schedule: Q01DX Z (oral), vehicle: carboxymethylcellulose (CMC) 97 % of control | dose: 480.0 mg/kg/injection, schedule: Q01DX Z (oral), vehicle: carboxymethylcellulose (CMC) 94 % of control

C/C=C/CC1(CCCC)C(=O)NC(=O)NC1=O
inactive: dose: 75.0 mg/kg/injection, schedule: Q01DX001 (ip), vehicle: saline 106 % of control | dose: 150.0 mg/kg/injection, schedule: Q01DX001 (ip), vehicle: saline 102 % of control

OCCC#CCCOC1CCCCO1 (stereo not given)
inactive: dose: 100.0 mg/kg/injection, schedule: Q04DX002 (ip), vehicle: saline with Tween-80 93 % of control | dose: 200.0 mg/kg/injection, schedule: Q04DX002 (ip), vehicle: saline with Tween-80 103 % of control | dose: 400.0 mg/kg/injection, schedule: Q04DX002 (ip), vehicle: saline with Tween-80 103 % of control

Nc1[nH]c(=O)nc2nc(I)[nH]c12
inactive: [19] 97 % of control | [20] 100 % of control | [21] 113 % of control

CC(=O)C1=C(O)c2ccccc2C(=O)C1=O
inactive: dose: 100.0 mg/kg/injection, schedule: Q01DX001 (ip), vehicle: water 96 % of control

O=C1/C(=C/c2ccc(O)c(O)c2)CCc2ccccc21
inactive: dose: 30.0 mg/kg/injection, schedule: Q01DX015 (ip), vehicle: saline 97 % of control | dose: 60.0 mg/kg/injection, schedule: Q01DX015 (ip), vehicle: saline 94 % of control | dose: 120.0 mg/kg/injection, schedule: Q01DX015 (ip), vehicle: saline 94 % of control | dose: 240.0 mg/kg/injection, schedule: Q01DX015 (ip), vehicle: saline 100 % of control

COc1ccc(/C=C2\C(=O)OC(=O)\C2=C\c2ccc(OC)c(OC)c2)cc1OC
inactive: [2] 100 % of control | [5] 102 % of control | [3] 97 % of control | [7] 102 % of control | [9] 96 % of control

S=C(Sc1ccc(Cl)cc1)Sc1ccc(Cl)cc1
inactive: [1] 93 % of control | [10] 93 % of control | [11] 90 % of control

C/C(=N\NC(=S)Nc1cc(Cl)ccc1Cl)c1ccc(O)c(C)c1
inactive: dose: 12.5 mg/kg/injection, schedule: Q04DX002 (ip), vehicle: Klucel (hydroxypropylcellulose) (HPC) 102 % of control | dose: 25.0 mg/kg/injection, schedule: Q04DX002 (ip), vehicle: Klucel (hydroxypropylcellulose) (HPC) 102 % of control | [12] 105 % of control

— PubChem BioAssay AID248 (DTP/NCI, 2004)
